Data set [1] deals with TDP1 (Homo sapiens, UniProt Q9NUW8). Description: Real-time fluorescence detection of TDP1 activity (FAM/BHQ1 oligonucleotide biosensor). The class given is biochemical. An excerpt:
For real-time detection of TDP1 activity, we used the oligonucleotide biosensor based on the ability of TDP1 to remove fluorophore quenchers from the 3′-end of DNA [29]. The hexadecameric oligonucleotide carried 5(6)-carboxyfluorescein (FAM) at the 5′-end and fluorophore quencher BHQ1 (Black Hole Quencher-1) at the 3′-end. TDP1 inhibitors prevent the removal of fluorophore quenchers, thus reducing fluorescence intensity.
TDP1 activity was detected, as described by intensity measurement in a reaction of quencher removal from a fluorophore quencher–coupled DNA oligonucleotide catalyzed by TDP1. The reaction was carried out at different concentrations of inhibitors (the control samples contained 1% of DMSO). The reaction mixtures contained TDP1 buffer (50 mM Tris-HCl pH 8.0, 50 mM NaCl, and 7 mM β-mercaptoethanol), 50 nM biosensor, and an inhibitor being tested. Purified TDP1 (1.5 nM) triggered the reaction. The biosensor (5′-[FAM] AAC GTC AGGGTC TTC C [BHQ]-3′) was synthesized in the Laboratory of Nucleic Acid Chemistry at the Institute of Chemical Biology and Fundamental Medicine (Novosibirsk, Russia).
The reactions were incubated on a POLARstar OPTIMA fluorimeter (BMG LABTECH, GmbH, Ortenberg, Germany) to measure fluorescence every 60 s (ex. 485/em. 520 nm) during the linear phase (here, data from minute 0 to minute 8). The values of IC50 were determined using a six-point concentration response curve in a minimum of three independent experiments and were calculated using MARS Data Analysis 2.0 (BMG LABTECH, Ortenberg, Germany).

For data set [2], the target named is T1, recombinant human TDP2 (Homo sapiens, UniProt O95551).
T1 sequence (O95551 1-362): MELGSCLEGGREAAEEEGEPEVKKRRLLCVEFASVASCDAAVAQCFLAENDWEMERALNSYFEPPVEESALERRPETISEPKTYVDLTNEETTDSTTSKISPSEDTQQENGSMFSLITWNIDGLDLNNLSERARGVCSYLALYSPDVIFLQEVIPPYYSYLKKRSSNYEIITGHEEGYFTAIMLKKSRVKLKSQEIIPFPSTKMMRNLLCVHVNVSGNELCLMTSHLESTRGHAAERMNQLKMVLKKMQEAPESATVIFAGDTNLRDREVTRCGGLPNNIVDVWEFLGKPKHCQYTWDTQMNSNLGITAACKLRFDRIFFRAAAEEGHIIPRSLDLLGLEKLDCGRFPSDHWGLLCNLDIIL
Description: Gel-based TDP2 activity assay (removal of 5'-tyrosine from oligonucleotide, PAGE). Type of data set: biochemical. Also noted: key to Tdp2 activity, c 200 µM / Tdp2 (inhibitor concentration 1 mM): TDP2 active (+); -: inactive (−). Conditions: for Tdp2 activity, c 200 µM: c 200 µM (Table S3 head); for Tdp2 (inhibitor concentration 1 mM) / remaining activity at 1000 µM: inhibitor 1 mM; for remaining activity at 1000 µM: residual enzyme activity, read-out: TDP2 (Inhibitor Concentration 1 mM), residual activity of TDP2. The method, then:
We investigated the activity against the TDP2 enzyme for compounds 4–10, 12–15, and 17–19 (Table 1). TDP2 was tested for its ability to eliminate tyrosine residue from the 5’-end of the oligonucleotide substrate. The TDP2 reaction products were separated under denaturing conditions in polyacrylamide gel (PAGE). […] Note that as different assays formats were used for TDP1 and TDP2 inhibition, the value of these assays cannot be directly compared. A paper on derivatives of usnic acid as effective TDP1 inhibitors and mild inhibitors of TDP2 was recently published. […] More inhibitors of this enzyme have also been reported in the literature. Obviously, further work for increasing activity against TDP2 is needed.
The oligonucleotide with tyrosine residue on the 5′-end (5′-tyrosine-AAC GTC AGG GTC TTC C-FAM-3′) was used for the TDP2 enzyme activity assay. The TDP2 reaction products were separated under denaturing conditions in polyacrylamide gel (PAGE). The reaction was performed in a final volume of 20 μL using 100 nM substrate incubated with 200 nM recombinant human TDP2 in the absence or presence of the inhibitor for 10 min at 37 °C in a buffer containing 50 mM Tris-HCl, pH 8.0, 50 mM NaCl, 7 mM β-mercaptoethanol. Reactions were terminated by the addition of gel loading buffer contained 10% formamide, 7 M carbamide, 0.1% xylene cyanol, and 0,1% bromophenol blue. The samples were heated at 90 °C for 7 min before loading on the gel. The reaction products were separated by electrophoresis in a 20% denaturing PAGE with 7 M carbamide. A Typhoon FLA 9500 phosphorimager (GE Healthcare) was used for gel scanning and imaging. Each experiment was carried out in three independent replicates. The data were analyzed with QuantityOne 4.6.7 software.

Data set [3] is described as follows: Intrinsic cytotoxicity, EZ4U assay, HeLa. Conditions: human, HeLa cells.
Description: (§1) Next, we examined the intrinsic cytotoxicity of the compounds on HeLa cervical cancer cells and human embryonic kidney derived cells HEK293A.
(§2) Cytotoxicity of the compounds to HeLa (human cervical cancer) and HEK293A (human embryonic kidney) cell lines was examined using the EZ4U Cell Proliferation and Cytotoxicity Assay (Biomedica, Vienna, Austria), according to the manufacturer’s protocols. The cells were grown in Iscove’s modified Dulbecco’s medium (IMDM) with 40 μg/mL gentamicin, 50 IU/mL penicillin, 50 μg/mL streptomycin (MP Biomedicals, Waltham, MA, USA), and 10% of fetal bovine serum (Biolot, Saint Petersburg, Russia) in a 5% CO2 atmosphere. After the formation of a 30–50%monolayer, the tested compounds were added to the medium. […] The volume of the added reagents was 1/100 of the total volume of the culture medium, and the amount of DMSO was 1% of the final volume. Control cells were grown in the presence of 1% DMSO. The cell culture was monitored for three days.
Data set [4] can be described thus: Intrinsic cytotoxicity, EZ4U assay, HEK293A. Conditions: human, HEK293A cells.
Description: as §1, §2
Where [5] appears, read: read-out: IC50 (Tdp1, Table S4).
Where [6] appears, read: concentration that inhibits the activity of the enzyme by 50%, read-out: TDP1 IC50.

Where two headings read alike, the source gives them in different places. Bounds are passed on as bounds.

Sequence of TDP1 (Q9NUW8 whole entry): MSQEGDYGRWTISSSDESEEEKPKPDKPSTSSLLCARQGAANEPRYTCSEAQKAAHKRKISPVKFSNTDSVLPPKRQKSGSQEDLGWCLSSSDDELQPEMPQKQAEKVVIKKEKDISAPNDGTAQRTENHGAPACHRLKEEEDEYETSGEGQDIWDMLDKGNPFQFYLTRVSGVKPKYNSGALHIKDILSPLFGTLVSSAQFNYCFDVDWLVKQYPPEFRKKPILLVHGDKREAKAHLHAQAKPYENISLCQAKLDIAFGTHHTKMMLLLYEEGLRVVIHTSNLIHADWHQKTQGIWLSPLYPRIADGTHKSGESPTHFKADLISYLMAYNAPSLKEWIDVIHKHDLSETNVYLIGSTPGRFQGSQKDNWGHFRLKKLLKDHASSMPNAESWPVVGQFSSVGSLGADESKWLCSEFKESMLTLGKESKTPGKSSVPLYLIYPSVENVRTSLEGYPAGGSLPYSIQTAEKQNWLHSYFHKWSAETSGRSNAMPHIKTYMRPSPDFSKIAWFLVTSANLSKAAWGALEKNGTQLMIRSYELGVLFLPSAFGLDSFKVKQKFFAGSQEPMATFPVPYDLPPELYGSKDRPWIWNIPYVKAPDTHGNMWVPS

Broadly, the IC50 is the concentration needed to halve the response being measured. As a reminder, the melting point is the temperature of the solid-liquid transition. Consider `C[C@H](CCC(=O)O)[C@H]1CC[C@H]2[C@@H]3CC[C@@H]4C[C@H](OCc5ccccc5)CC[C@]4(C)[C@H]3C[C@H](OCc3ccccc3)[C@]12C` [Compound 1, 3α,12α-Dibenzyloxy-5β-cholan-24-oic acid], for which the melting point was 181.2 °C (dec.). The IC50 in data set [1] (setting [5]) was found to be 0.44 µM. Moreover, in data set [2], the “Tdp2 activity, c 200 µM” value is “+” and the “Tdp2 (inhibitor concentration 1 mM)” value was “+”.
As for `C[C@H](CCC(=O)O)[C@H]1CC[C@H]2[C@@H]3CC[C@@H]4C[C@H](OCc5ccccc5)CC[C@]4(C)[C@H]3C[C@H](O)[C@]12C` [Compound 2, 3α-Benzyloxy-12α-hydroxy-5β-cholan-24-oic Acid], the melting point is 86 °C (dec.). In addition, the IC50 in data set [1] (setting [5]) is 18.3 µM. Further, in data set [2], the “Tdp2 activity, c 200 µM” value is reported as “+” and the “Tdp2 (inhibitor concentration 1 mM)” value is “+”.
As to `C[C@H](CCC(=O)O)[C@H]1CC[C@H]2[C@@H]3CC[C@@H]4C[C@H](OCc5ccccc5)CC[C@]4(C)[C@H]3CC(=O)[C@]12C` [Compound 3, 3α-Benzyloxy-12α-oxo-5β-cholan-24-oic Acid], the melting point is 147.9 °C. The IC50 in data set [1] (setting [5]) is 0.78 µM. Besides, in data set [2], the “Tdp2 activity, c 200 µM” value is on record as “+” and the “Tdp2 (inhibitor concentration 1 mM)” value is reported as “+”.
In general, CC50 refers to the concentration at which the toxic effect on the cells reaches its halfway point. Turning to `C[C@H](CCC(=O)NCCc1c[nH]c2ccccc12)[C@H]1CC[C@H]2[C@@H]3CC[C@@H]4C[C@H](OCc5ccccc5)CC[C@]4(C)[C@H]3C[C@H](OCc3ccccc3)[C@]12C` [Compound 4, N-(2″-(1H-Indol-3′-yl)ethyl)-3α,12α-dibenzyloxy-5β-cholane-24-amide], the 50% inhibitory concentration (IC50) in data set [1] (setting [6]) was found to be 0.75 ± 0.17 µM. In data set [2], the “Tdp2 activity, c 200 µM” value is listed as “+”; the “Tdp2 (inhibitor concentration 1 mM)” value is reported as “+”; the remaining activity at 1000 µM stood at 35 ± 4%. The molecule also yielded a CC50 at 72 h in data set [3] of over 100 µM. Also, the CC50 at 72 h in data set [4] is over 100 µM.
In turn, `C[C@H](CCC(=O)Nc1ccc(Br)cc1)[C@H]1CC[C@H]2[C@@H]3CC[C@@H]4C[C@H](OCc5ccccc5)CC[C@]4(C)[C@H]3C[C@H](OCc3ccccc3)[C@]12C` [Compound 7, N-(4′-Bromophenyl)-3α,12α-dibenzyloxy-5β-cholane-24-amide] displayed a melting point of 186.2 to 191.3 °C. Also, the IC50 in data set [1] (setting [6]) is 0.97 ± 0.46 µM. In addition, in data set [2], the “Tdp2 activity, c 200 µM” value is on record as “+”; the “Tdp2 (inhibitor concentration 1 mM)” value is “+”; the remaining activity at 1000 µM is 44 ± 5%.
Take `C[C@H](CCC(=S)Nc1ccc(Br)cc1)[C@H]1CC[C@H]2[C@@H]3CC[C@@H]4C[C@H](OCc5ccccc5)CC[C@]4(C)[C@H]3C[C@H](OCc3ccccc3)[C@]12C` [Compound 11, N-(4′-Bromophenyl)-3α,12α-dibenzyloxy-5β-cholane-24-thioamide]: the melting point is 58 °C (dec.).
For the molecule `C[C@H](CCC(=O)O/N=C(\N)Cc1ccc(Br)cc1)[C@H]1CC[C@H]2[C@@H]3CC[C@@H]4C[C@H](OCc5ccccc5)CC[C@]4(C)[C@H]3C[C@H](OCc3ccccc3)[C@]12C` [Compound 12], the melting point lay in the range of 80.2 to 83.9 °C. The IC50 in data set [1] (setting [6]) is 0.32 ± 0.13 µM. Besides, in data set [2], the “Tdp2 activity, c 200 µM” value is “+”; the “Tdp2 (inhibitor concentration 1 mM)” value is “+”; the remaining activity at 1000 µM was under 50%.
With `C[C@H](CCc1nc(Cc2ccc(Br)cc2)no1)[C@H]1CC[C@H]2[C@@H]3CC[C@@H]4C[C@H](OCc5ccccc5)CC[C@]4(C)[C@H]3C[C@H](OCc3ccccc3)[C@]12C` [Compound 13, 5′-(24-Nor-3α,12α-dibenzyloxy-5β-cholan-23-yl)-3′-(methyl(4″-bromophenyl))-1′,2′,4′-oxadiazole], in data set [1] (setting [6]), the half-inhibitory concentration (IC50) stood at 0.53 ± 0.23 µM. For the same molecule, in data set [2], the “Tdp2 activity, c 200 µM” value is “-”; the “Tdp2 (inhibitor concentration 1 mM)” value is given as “-”; the remaining activity at 1000 µM is over 50%.
`C[C@H](CCC(=O)O/N=C(\N)c1ccc(Br)cc1)[C@H]1CC[C@H]2[C@@H]3CC[C@@H]4C[C@H](OCc5ccccc5)CC[C@]4(C)[C@H]3C[C@H](OCc3ccccc3)[C@]12C` [Compound 14] displayed a melting point of 144.5 to 147.4 °C. In data set [1] (setting [6]), the IC50 amounted to 0.33 ± 0.15 µM. Besides, in data set [2], the “Tdp2 activity, c 200 µM” value is on record as “+”; the “Tdp2 (inhibitor concentration 1 mM)” value is “+”; the remaining activity at 1000 µM was under 50%.
Consider `C[C@H](CCc1nc(-c2ccc(Br)cc2)no1)[C@H]1CC[C@H]2[C@@H]3CC[C@@H]4C[C@H](OCc5ccccc5)CC[C@]4(C)[C@H]3C[C@H](OCc3ccccc3)[C@]12C` [Compound 15, 5′-(24-Nor-3α,12α-Dibenzyloxy-5β-cholan-23-yl)-3′-(4″-bromophenyl)-1′,2′,4′-oxadiazole], for which the melting point fell in the range of 130.2 to 135.5 °C. Also, the IC50 in data set [1] (setting [6]) worked out at 0.42 ± 0.3 µM. In addition, in data set [2], the “Tdp2 activity, c 200 µM” value is listed as “-”; the “Tdp2 (inhibitor concentration 1 mM)” value is reported as “-”; the remaining activity at 1000 µM was over 50%.
Molecule `COC(=O)CC[C@@H](C)[C@H]1CC[C@H]2[C@@H]3CC[C@@H]4C[C@H](OCc5ccccc5)CC[C@]4(C)[C@H]3C[C@H](OCc3ccccc3)[C@]12C` [Compound 16, Methyl 3α,12α-Dibenzyloxy-5β-cholan-24-oate] yielded a melting point of 93.3 to 93.7 °C. For the same molecule, in data set [2], the “Tdp2 activity, c 200 µM” value is on record as “-” and the “Tdp2 (inhibitor concentration 1 mM)” value was “-”.
`C[C@H](CCC(=O)NN)[C@H]1CC[C@H]2[C@@H]3CC[C@@H]4C[C@H](OCc5ccccc5)CC[C@]4(C)[C@H]3C[C@H](OCc3ccccc3)[C@]12C` [Compound 17, 3α,12α-Dibenzyloxy-5β-cholan-24-hydrazide] registered a melting point of 179 to 180 °C. Besides, the IC50 in data set [1] (setting [6]) stood at 0.23 ± 0.08 µM. For the same molecule, in data set [2], the “Tdp2 activity, c 200 µM” value is recorded as “+”; the “Tdp2 (inhibitor concentration 1 mM)” value is “+”; the remaining activity at 1000 µM is over 50%.
`C[C@H](CCC(=O)N/N=C/c1ccc(Br)cc1)[C@H]1CC[C@H]2[C@@H]3CC[C@@H]4C[C@H](OCc5ccccc5)CC[C@]4(C)[C@H]3C[C@H](OCc3ccccc3)[C@]12C` [Compound 18, N’-(4″-Bromobenzylidene)-3α,12α-dibenzyloxy-5β-cholan-24-hydrazide] yielded a melting point of 147.7 to 150 °C. In addition, in data set [1] (setting [6]), the IC50 was 0.51 ± 0.21 µM. Besides, in data set [2], the “Tdp2 activity, c 200 µM” value was “+”; the “Tdp2 (inhibitor concentration 1 mM)” value is given as “+”; the remaining activity at 1000 µM was under 50%.
Take `C[C@H](CCc1nnc(-c2ccc(Br)cc2)o1)[C@H]1CC[C@H]2[C@@H]3CC[C@@H]4C[C@H](OCc5ccccc5)CC[C@]4(C)[C@H]3C[C@H](OCc3ccccc3)[C@]12C` [Compound 19, 2′-(24-Nor-3α,12α-dibenzyloxy-5β-cholan-23-yl)-5′-(4″-bromophenyl)-1′,3′,4′-oxadiazole]: the melting point is 131.4 °C (dec.). Besides, in data set [1] (setting [6]), the IC50 came to 1.01 ± 0.43 µM. The remaining activity at 1000 µM in data set [2] is under 50%.
